Measurements published in publication doi:10.1101/2025.06.24.661388v1 (biorxiv, 2025).

Assays:
[1] = target: T1, monoacylglycerol lipase (MAGL), mouse brain (Mus musculus, UniProt O35678); assay: displacement autoradiography on brain sections; details: unlabelled T-401 against […] [3H]T-401; hippocampus and cerebral cortex
T1 sequence (O35678 1-303): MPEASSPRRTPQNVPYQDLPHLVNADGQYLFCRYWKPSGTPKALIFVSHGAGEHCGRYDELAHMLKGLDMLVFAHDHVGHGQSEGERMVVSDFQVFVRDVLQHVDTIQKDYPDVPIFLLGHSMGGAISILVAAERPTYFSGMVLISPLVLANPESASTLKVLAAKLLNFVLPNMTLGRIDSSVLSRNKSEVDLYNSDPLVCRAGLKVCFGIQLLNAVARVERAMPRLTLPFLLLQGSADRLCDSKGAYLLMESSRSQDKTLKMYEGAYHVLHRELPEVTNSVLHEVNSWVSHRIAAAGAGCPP

[2] = target: T2, monoacylglycerol lipase (MAGL), human temporal cortex (Homo sapiens, UniProt Q99685); assay: displacement autoradiography on brain sections; details: unlabelled T-401 against […] [3H]T-401, room temperature
T2 sequence (Q99685 1-303): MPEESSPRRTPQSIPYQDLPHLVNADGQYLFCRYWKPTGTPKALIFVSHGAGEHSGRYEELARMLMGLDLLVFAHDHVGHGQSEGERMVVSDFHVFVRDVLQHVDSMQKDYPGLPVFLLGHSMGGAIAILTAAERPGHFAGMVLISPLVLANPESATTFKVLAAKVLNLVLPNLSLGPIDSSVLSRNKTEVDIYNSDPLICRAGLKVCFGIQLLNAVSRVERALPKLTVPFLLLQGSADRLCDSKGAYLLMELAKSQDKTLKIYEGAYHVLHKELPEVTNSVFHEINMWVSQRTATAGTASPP

[3] = target: T1, monoacylglycerol lipase (MAGL), mouse brain; assay: saturation autoradiography on brain sections; details: labelled compound; [3H]T-401 […]; […] min; cerebral cortex
[4] = target: T2, monoacylglycerol lipase (MAGL), human temporal cortex; assay: saturation autoradiography on brain sections; details: labelled compound, [3H]T-401 […] min, room temperature

Molecule `Cc1ccnc(F)c1-c1cccc(N2C[C@H](N3CCN(C(=O)c4nccs4)CC3)CC2=O)c1` [T-401, (R)-1-(3-(2-fluoro-4-methylpyridin-3-yl)phenyl)-4-(4-(thiazole-2-carbonyl)piperazin-1-yl)pyrrolidine-2-one] has an IC50 [1] of 41 nM, an IC50 [2] of 32 nM and a Kd [3] of 5.8 nM. It also gave a Kd [4] of 4.7 ± 0.8 nM.
